Experimental data reported in patent publication US5240959A, “Aranorosinol-A and aranorosinol-B produced by Pseudoarachniotus roseus” (Hoechst Aktiengesellschaft, priority 1991, dated 1993).
Values after ≈ are worked out from the molar mass of the structure shown.

Columns and labels:
[1] = system: E. coli Ess 2231; test: Minimum inhibitory concentration, E. coli Ess 2231; assay type: cell-based; conditions: Escherichia coli, ESS2231
Description: (§1) The minimum inhibitory concentrations required to inhibit different bacteria and fungal strains by Aranorosinol-A and Aranorosinol-B are given in Table I

[2] = system: Streptococcus faecalis; test: Minimum inhibitory concentration, Streptococcus faecalis; assay type: cell-based; conditions: Enterococcus faecalis
Description: as §1

[3] = system: Bacillus subtilis; test: Minimum inhibitory concentration, Bacillus subtilis; assay type: cell-based
Description: as §1

[4] = system: Aspergillus niger; test: Minimum inhibitory concentration, Aspergillus niger; assay type: cell-based
Description: as §1

[5] = Solubility; assay type: physicochemical
[6] = system: bacteria and fungal strains; test: Antibacterial and antifungal activity spectrum; assay type: cell-based; conditions: conclusion from Table I
Description: as §1

[7] = system: Trichophyton mentagrophytes; test: Minimum inhibitory concentration, Trichophyton mentagrophytes; assay type: cell-based
Description: as §1

[8] = system: Staphylococcus aureus 209 P; test: Minimum inhibitory concentration, Staphylococcus aureus 209 P; assay type: cell-based
Description: as §1

[9] = system: E. coli 9632; test: Minimum inhibitory concentration, E. coli 9632; assay type: cell-based; conditions: Escherichia coli
Description: as §1

[10] = system: Saccharomyces cerevisiae; test: Minimum inhibitory concentration, Saccharomyces cerevisiae; assay type: cell-based
Description: as §1

[11] = system: Klebsiella pneumoniae; test: Minimum inhibitory concentration, Klebsiella pneumoniae; assay type: cell-based
Description: as §1

[12] = system: Microsporum; test: Minimum inhibitory concentration, Microsporum; assay type: cell-based
Description: as §1

[13] = system: Salmonella typhimurium; test: Minimum inhibitory concentration, Salmonella typhimurium; assay type: cell-based; conditions: Salmonella enterica
Description: as §1

[14] = system: Candida albicans; test: Minimum inhibitory concentration, Candida albicans; assay type: cell-based
Description: as §1

[15] = system: Proteus vulgaris; test: Minimum inhibitory concentration, Proteus vulgaris; assay type: cell-based
Description: as §1

[16] = system: Pseudomonas aeruginosa; test: Minimum inhibitory concentration, Pseudomonas aeruginosa; assay type: cell-based
Description: as §1

[17] = system: Staphylococcus aureus 20240; test: Minimum inhibitory concentration, Staphylococcus aureus 20240; assay type: cell-based
Description: as §1

[18] = in dichloromethane, chloroform, acetone, methanol, diethyl ether, ethyl acetate and dimethyl sulfoxide

| SMILES | MIC [1] | MIC [2] | MIC [3] | MIC [4] | Solubility [5, 18] | Solubility ([5]; in n-hexane, water) | activity against bacteria and fungi (in words) [6] | MIC [7] | MIC [8] | MIC [9] | MIC [10] | MIC [11] | MIC [12] | MIC [13] | MIC [14] | MIC [15] | MIC [16] | MIC [17] |
| --- | --- | --- | --- | --- | --- | --- | --- | --- | --- | --- | --- | --- | --- | --- | --- | --- | --- | --- |
| CCCCCCC(C)/C=C(C)/C=C/C(=O)NC1CC2(OC1O)C1OC1C(O)C1OC12 (stereo not drawn) [Aranorosinol-A] | 62.5 µg/mL (≈ 148 µM) | 31.2 µg/mL (≈ 74.1 µM) | 3.9 µg/mL (≈ 9.25 µM) | > 250 µg/mL | soluble | Insoluble | active against Gram-positive, Gram-negative bacteria and against yeast and filamentous fungi | 62.5 µg/mL (≈ 148 µM) | 15.6 µg/mL (≈ 37 µM) | > 250 µg/mL | 31.2 µg/mL (≈ 74.1 µM) | > 250 µg/mL | > 250 µg/mL | > 250 µg/mL | 62.5 µg/mL (≈ 148 µM) | > 250 µg/mL | > 250 µg/mL | 31.2 µg/mL (≈ 74.1 µM) |
| CCCCCCC(C)/C=C(C)/C=C/C(=O)NC1CC2(OC1O)C1OC1C(O)(CC(C)=O)C1OC12 (stereo not drawn) [Aranorosinol-B] | > 250 µg/mL | 125 µg/mL (≈ 262 µM) | 15.6 µg/mL (≈ 32.7 µM) | > 250 µg/mL | soluble | Insoluble | active against Gram-positive bacteria only | > 250 µg/mL | 31.2 µg/mL (≈ 65.4 µM) | > 250 µg/mL | 250 µg/mL (≈ 523 µM) | > 250 µg/mL | > 250 µg/mL | > 250 µg/mL | 250 µg/mL (≈ 523 µM) | > 250 µg/mL | > 250 µg/mL | 15.6 µg/mL (≈ 32.7 µM) |
